Source: the supplement of paper PMC10307832

What was measured:
Assay in all cases: relative viability (nuclei count vs DMSO), 5 days (fraction); higher = more cells survive
[1] = system: HCC-78
In short: (§1)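 Dosing by pin tool came one day after lung cancer cell lines were seeded in 1536-well plates, using either one drug or a fixed anchor-drug dose plus five library-drug doses (not always all listed) in √10 steps. After 5 days, nuclei were counted on 4× images. Relative viability is treated-well nuclei count divided by vehicle-well nuclei count, and values are medians of duplicate plates.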

[2] = system: NCI-H322M
In short: as §1

[3] = system: SK-MES-1
In short: as §1

[4] = system: UMC-11
In short: as §1

[5] = system: LC-2-ad
In short: as §1

[6] = system: ChaGo-K-1
In short: as §1

[7] = system: LCLC-97TM1
In short: as §1

[8] = system: NCI-H661
In short: as §1

[9] = system: LK-2
In short: as §1

[10] = system: NCI-H1944
In short: as §1

[11] = system: LXF-289
In short: as §1

[12] = system: BEN
In short: as §1

[13] = system: HCC-15
In short: as §1

[14] = system: H3255
In short: as §1

[15] = system: NCI-H1666
In short: as §1

[16] = system: NCI-H2087
In short: as §1

[17] = system: LU99A
In short: as §1

[18] = system: NCI-H2342
In short: as §1

[19] = system: NCI-H650
In short: as §1

[20] = system: PC-3 [JPC-3]
In short: as §1

[21] = system: NCI-H838
In short: as §1

[22] = system: NCI-H1651
In short: as §1

[23] = system: NCI-H358
In short: as §1

[24] = system: NCI-H596
In short: as §1

Compound: C[C@@H]1CN(CC(=O)Nc2ccc3c(c2)Cc2cccc(-c4cc(=O)cc(N5CCOCC5)o4)c2S3)C[C@H](C)O1 + O=C(CCCCCCC(=O)Nc1ccccc1)NO [Vorinostat] (partner 1 µM)
- relative viability ([1]; first compound 0.04 µM): 0.455
- relative viability ([1]; first compound 0.1265 µM): 0.417
- relative viability ([1]; first compound 0.4 µM): 0.46
- relative viability ([1]; first compound 4 µM): 0.4
- relative viability ([2]; first compound 0.04 µM): 0.883
- relative viability ([2]; first compound 0.1265 µM): 0.847
- relative viability ([2]; first compound 0.4 µM): 0.902
- relative viability ([2]; first compound 4 µM): 0.776
- relative viability ([3]; first compound 0.04 µM): 1.19
- relative viability ([3]; first compound 0.1265 µM): 1.07
- relative viability ([3]; first compound 0.4 µM): 1.01
- relative viability ([3]; first compound 4 µM): 0.855
- relative viability ([4]; first compound 0.04 µM): 0.378
- relative viability ([4]; first compound 0.1265 µM): 0.433
- relative viability ([4]; first compound 0.4 µM): 0.441
- relative viability ([4]; first compound 4 µM): 0.366
- relative viability ([5]; first compound 0.04 µM): 0.639
- relative viability ([5]; first compound 0.1265 µM): 0.679
- relative viability ([5]; first compound 0.4 µM): 0.712
- relative viability ([5]; first compound 4 µM): 0.606
- relative viability ([6]; first compound 0.04 µM): 0.496
- relative viability ([6]; first compound 0.1265 µM): 0.778
- relative viability ([6]; first compound 0.4 µM): 0.803
- relative viability ([6]; first compound 4 µM): 0.72
- relative viability ([7]; first compound 0.1265 µM): 0.547
- relative viability ([7]; first compound 0.4 µM): 0.685
- relative viability ([7]; first compound 4 µM): 0.552
- relative viability ([8]; first compound 0.04 µM): 0.689
- relative viability ([8]; first compound 0.1265 µM): 0.805
- relative viability ([8]; first compound 0.4 µM): 0.756
- relative viability ([8]; first compound 4 µM): 0.773
- relative viability ([9]; first compound 0.04 µM): 0.314
- relative viability ([9]; first compound 0.1265 µM): 0.309
- relative viability ([9]; first compound 0.4 µM): 0.254
- relative viability ([9]; first compound 4 µM): 0.298
- relative viability ([10]; first compound 0.1265 µM): 0.716
- relative viability ([10]; first compound 0.4 µM): 0.594
- relative viability ([10]; first compound 4 µM): 0.637
- relative viability ([11]; first compound 0.04 µM): 0.534
- relative viability ([11]; first compound 0.1265 µM): 0.794
- relative viability ([11]; first compound 0.4 µM): 0.88
- relative viability ([11]; first compound 4 µM): 0.733
- relative viability ([12]; first compound 0.04 µM): 0.56
- relative viability ([12]; first compound 0.1265 µM): 0.55
- relative viability ([12]; first compound 0.4 µM): 0.602
- relative viability ([12]; first compound 4 µM): 0.625
- relative viability ([13]; first compound 0.04 µM): 0.825
- relative viability ([13]; first compound 0.1265 µM): 0.769
- relative viability ([13]; first compound 0.4 µM): 0.729
- relative viability ([13]; first compound 4 µM): 0.663
- relative viability ([14]; first compound 0.04 µM): 0.634
- relative viability ([14]; first compound 0.1265 µM): 0.757
- relative viability ([14]; first compound 0.4 µM): 0.985
- relative viability ([14]; first compound 4 µM): 0.67
- relative viability ([15]; first compound 0.04 µM): 1.01
- relative viability ([15]; first compound 0.1265 µM): 1.17
- relative viability ([15]; first compound 0.4 µM): 1.09
- relative viability ([15]; first compound 4 µM): 0.885
- relative viability ([16]; first compound 0.04 µM): 0.85
- relative viability ([16]; first compound 0.1265 µM): 0.587
- relative viability ([16]; first compound 0.4 µM): 0.663
- relative viability ([16]; first compound 4 µM): 0.62
- relative viability ([17]; first compound 0.04 µM): 0.444
- relative viability ([17]; first compound 0.1265 µM): 0.582
- relative viability ([17]; first compound 0.4 µM): 0.544
- relative viability ([17]; first compound 4 µM): 0.595
- relative viability ([18]; first compound 0.04 µM): 0.609
- relative viability ([18]; first compound 0.1265 µM): 0.652
- relative viability ([18]; first compound 0.4 µM): 0.668
- relative viability ([18]; first compound 4 µM): 0.703
- relative viability ([19]; first compound 0.04 µM): 0.364
- relative viability ([19]; first compound 0.1265 µM): 0.386
- relative viability ([19]; first compound 0.4 µM): 0.39
- relative viability ([19]; first compound 4 µM): 0.414
- relative viability ([20]; first compound 0.04 µM): 0.822
- relative viability ([20]; first compound 0.1265 µM): 0.792
- relative viability ([20]; first compound 0.4 µM): 0.821
- relative viability ([20]; first compound 4 µM): 0.821
- relative viability ([21]; first compound 0.04 µM): 0.751
- relative viability ([21]; first compound 0.1265 µM): 0.646
- relative viability ([21]; first compound 0.4 µM): 0.633
- relative viability ([21]; first compound 4 µM): 0.535
- relative viability ([22]; first compound 0.04 µM): 0.541
- relative viability ([22]; first compound 0.1265 µM): 0.535
- relative viability ([22]; first compound 0.4 µM): 0.538
- relative viability ([22]; first compound 4 µM): 0.559
- relative viability ([23]; first compound 0.04 µM): 0.724
- relative viability ([23]; first compound 0.1265 µM): 0.589
- relative viability ([23]; first compound 0.4 µM): 0.687
- relative viability ([23]; first compound 4 µM): 0.261
- relative viability ([24]; first compound 0.04 µM): 0.627
- relative viability ([24]; first compound 0.1265 µM): 0.707
- relative viability ([24]; first compound 0.4 µM): 0.642
- relative viability ([24]; first compound 4 µM): 0.567
